Results published in US5493007A, “Platelet aggregation inhibitors having high specificity for GPIIBIIIA” (Genentech, Inc., priority 1994, dated 1996).
*1 amine or outer side, *2 acyl side, *3 side chain or, on linkers, in order; H or OH if unused. Where a SMILES comes first, the peptide text is derived from it. Bridges are numbered along the chain shown (N, C = ends). [ ]: non-standard residue; d: D form. The star is where a group is joined. Ethylenediamine = C(CN[*:2])N[*:1]; Aad = N[C@@H](CCCC(=O)O)C(=O)O; Pen = CC(C)(S)[C@H](N)C(=O)O; NH(CH2)4NH2 = NCCCCN*

Key:
GP IIb IIIa [1] = biological target: T1, GP IIb IIIa (Homo sapiens, UniProt P05106+P08514); experiment: Fibrinogen-GP IIb IIIa Receptor ELISA Binding Assay; set-up: from tissue; host or cells: outdated human platelets; details: purified human platelet GP IIb IIIa, fibrinogen-coated plates; read-out: ELISA IC50 Fibrinogen GPIIb IIIa
Protocol: The method used is essentially that described in Nachman and Leung (J. Clin. Invest., 69:263-269 [1982]). The GP IIb IIIa is essentially purified as described in Fitzgerald et al., (Anal. Biochem. 151:169-177 [1985]).
Outdated human platelets are washed 3 times with 10 mM tris-HCl, 150 mM NaCl (TBS), 1 mM EDTA, pH 7.5, and centrifuged at 2000×g to pellet cells. Cells are lysed in 5 pellet volumes of TBS, 1% Triton X-100, 1 mM Ca2 Cl2, and followed by centrifugation at 30,000×g. The supernatant fraction is collected and the supernatant is loaded onto a concanavalin-A column, previously equilibrated in TBS, 1 mM Ca2 Cl2, 0.1% Triton, 0.05% NaN3 and eluted with 0.2M α-methylmannoside. Fractions are pooled and loaded onto a heparin-agarose column. The flowthrough is collected and concentration on an Amicon YM 30 filter to a volume of approximately 5-10 mi. The concentrate is then applied to an S-300 column (500 ml) and 6 ml fractions are collected. The GP IIb IlIa containing fractions are collected, pooled, and stored at -80° C.
The purification of fibrinogen is conducted essentially as described by Lipinska et al., (J. Lab. Clin. Med. 507, [1974]). Briefly, a 0.3% w/v solution of human fibrinogen (Kabi #5302) is dissolved in 150 mM NaCl. Saturated (NH4)2 SO4 is added dropwise with stirring to the fibrinogen solution to obtain about 16% saturation. The precipitate is spun down in appropriate size bottles at 2000×g. The supernatant is decanted and the precipitate resuspended in 150 mM NaCl (approximately 50% of the original volume). NH4 SO4 is again added dropwise to obtain 16% saturation. The suspension is spun down and the precipitate is resuspended in Tris-saline in a minimal volume (approximately 5% of the original volume). Any remaining insoluble material is spun down at 2000 rpm in a Sorval type centrifuge and the fibrinogen supernatant is decanted and dialyzed overnight at 4° C. against Tris-saline. Characterization of the fibrinogen is by the Bradford protein assay, SDS-PAGE, and/or Western blotting using well known standard procedures.
Briefly, 96 well plates are coated (Type Nunc 1 Maxisorp™) with 10 μg/ml purified fibrinogen (100 μl/well), and allowed to stand overnight at 4° C. The plates are washed three times with PBS Tween (0.137M NaCl, 0.003M KCl, 0.008M Na2 HPO4, 0.001M KH2 PO4, pH 7.4 at room temperature, 0.05% Tween-20) and blocked for 1 to 2 hours at room temperature with 200 μl/well TNCNT (which is 0.5% BSA, 20mM Tris, pH 7.5 at room temperature, 120 mM NaCl, 0.2% NAN3, 2mM CaCl2, 0.05% Tween 20, 0.5% BSA [Calbiochem RIA grade or better]) on a plate shaker. The plates are again washed three times with PBS/Tween and then 50 μl of sample in TNCNT is added. The mixture is incubated for 15 minutes at room temperature on a plate shaker. The stock solution of purified GP IIb IIIa receptor from human platelets, (0.4-1.0 mg/ml GP IIb IIIa in 0.1% Triton X-100, 1 mM CaCl2, 20 mM Tris, 150 mM NaCl, 0.05% NaN3 in 0.3M N-acetyl glucosamine pH 7.5, stored at -70° C.), is reconstituted to about 40 μg/ml in TNCNT. Fifty μl of this diluted GP IIb IIIa is then added to each well and incubated on a plate shaker at room temperature. After one hour, the plates are washed four times with PBS/Tween and 100 μl of a polyclonal or monoclonal antibody specific for GP IIIa such as AP3 (1 μg/ml) (See e.g. Newman et al., Blood, 65:227-232 [1985]) in ELISA buffer (PBS, 0.5% BSA, 0.05% Tween 20, 0.01% Thimerasol) is added. After a one hour incubation at room temperature on a plate shaker, the samples are washed 4 times with PBS/Tween. One hundred μl of GAM-HRP (horse radish peroxidase conjugate of goat anti-mouse IgG [Pel-Freeze Cat. 715305-1] dissolved in ELISA buffer) previously diluted to 1:10,000 is then added and the samples are incubated 1 hour at room temperature on a plate shaker. […]

GP IIb IIIa [2] = biological target: T1, GP IIb IIIa; experiment: GP IIb IIIa -von Willebrand factor (vWF) ELISA Assay; type: binding; set-up: GP IIb IIIa, prepared by the method of Fitzgerald et al; from tissue; details: GP IIb IIIa-coated plates, vWF; read-out: ELISA IC50 GPIIb IIIa vWF
Protocol: Microtiter plates are coated with 1.0 μg/ml GP IIb IIIa, prepared by the method of Fitzgerald et al., (Anal. Biochem. 151:169-177 [1985]) and allowed to incubate overnight in coat buffer. The plates are then washed three times in wash buffer (0.05% Tween 20 in PBS) and 150 μl of assay buffer is added and allowed to incubate for 1-2 hours at room temperature on plate shaker. The plates are washed three times and 50 μl of 2x inhibitor in assay buffer (Assay buffer: 0.5% BSA/50 mM Tris, 100 mM NaCl, 1.0 mM CaCl2, 1.0mM MgCl2, 1.0 mM MnCl2; coat buffer is the same but without BSA) is added. Fifty μl of 4.0 μg/ml vWF (prepared as described by Ledford et al., Thrombosis and Haemostasis, 64(4): 569-575 [1990]) in assay buffer is then added and allowed to incubate for one hour at room temperature on plate-shaker. The plates are washed three times and the antibody mixture is added (1:5000 of mouse anti-vWF and 1:5000 of rabbit-anti-mouse-Fc-HRP, both commercially available) in assay buffer and incubated for 1 hour at room temperature on plate-shaker. Plates are again washed three times and 100 μl of substrate solution (10 mg OPD, 6.5 μl H2 O2, 15 ml phosphate citrate buffer) is added and incubated at room temperature. The color change of OPD/H2 O2 reagent is read at 492 nm with a 405 nm reference wavelength on the filter photometer.

T1 sequence (P08514 32-887 limits assumed): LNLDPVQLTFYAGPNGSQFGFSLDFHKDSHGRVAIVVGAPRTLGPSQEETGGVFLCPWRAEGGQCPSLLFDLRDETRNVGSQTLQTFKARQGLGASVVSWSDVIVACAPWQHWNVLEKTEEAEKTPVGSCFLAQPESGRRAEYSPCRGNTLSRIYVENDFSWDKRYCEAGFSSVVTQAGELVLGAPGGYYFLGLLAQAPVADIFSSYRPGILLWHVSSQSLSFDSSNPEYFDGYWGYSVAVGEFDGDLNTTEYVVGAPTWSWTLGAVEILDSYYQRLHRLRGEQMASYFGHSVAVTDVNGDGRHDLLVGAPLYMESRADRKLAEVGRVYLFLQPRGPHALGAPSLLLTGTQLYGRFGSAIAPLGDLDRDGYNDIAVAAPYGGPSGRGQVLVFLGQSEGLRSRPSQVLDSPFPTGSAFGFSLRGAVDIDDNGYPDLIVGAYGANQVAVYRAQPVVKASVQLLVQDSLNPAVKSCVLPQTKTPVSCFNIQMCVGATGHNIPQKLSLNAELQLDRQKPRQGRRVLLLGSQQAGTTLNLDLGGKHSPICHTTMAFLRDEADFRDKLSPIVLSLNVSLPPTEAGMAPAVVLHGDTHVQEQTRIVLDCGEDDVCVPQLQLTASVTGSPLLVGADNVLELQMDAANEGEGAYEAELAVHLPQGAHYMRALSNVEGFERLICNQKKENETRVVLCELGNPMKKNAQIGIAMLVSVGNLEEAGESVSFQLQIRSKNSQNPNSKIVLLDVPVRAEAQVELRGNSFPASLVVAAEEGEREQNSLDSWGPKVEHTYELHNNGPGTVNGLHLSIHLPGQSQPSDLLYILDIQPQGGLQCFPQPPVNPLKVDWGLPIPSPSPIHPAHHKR
T1 sequence (P08514 891-1039 partner limits assumed): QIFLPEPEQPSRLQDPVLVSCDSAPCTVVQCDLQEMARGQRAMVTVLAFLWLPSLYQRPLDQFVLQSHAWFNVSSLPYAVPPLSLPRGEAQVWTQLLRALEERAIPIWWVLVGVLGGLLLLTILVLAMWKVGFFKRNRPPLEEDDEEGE
T1 sequence (P05106 27-788): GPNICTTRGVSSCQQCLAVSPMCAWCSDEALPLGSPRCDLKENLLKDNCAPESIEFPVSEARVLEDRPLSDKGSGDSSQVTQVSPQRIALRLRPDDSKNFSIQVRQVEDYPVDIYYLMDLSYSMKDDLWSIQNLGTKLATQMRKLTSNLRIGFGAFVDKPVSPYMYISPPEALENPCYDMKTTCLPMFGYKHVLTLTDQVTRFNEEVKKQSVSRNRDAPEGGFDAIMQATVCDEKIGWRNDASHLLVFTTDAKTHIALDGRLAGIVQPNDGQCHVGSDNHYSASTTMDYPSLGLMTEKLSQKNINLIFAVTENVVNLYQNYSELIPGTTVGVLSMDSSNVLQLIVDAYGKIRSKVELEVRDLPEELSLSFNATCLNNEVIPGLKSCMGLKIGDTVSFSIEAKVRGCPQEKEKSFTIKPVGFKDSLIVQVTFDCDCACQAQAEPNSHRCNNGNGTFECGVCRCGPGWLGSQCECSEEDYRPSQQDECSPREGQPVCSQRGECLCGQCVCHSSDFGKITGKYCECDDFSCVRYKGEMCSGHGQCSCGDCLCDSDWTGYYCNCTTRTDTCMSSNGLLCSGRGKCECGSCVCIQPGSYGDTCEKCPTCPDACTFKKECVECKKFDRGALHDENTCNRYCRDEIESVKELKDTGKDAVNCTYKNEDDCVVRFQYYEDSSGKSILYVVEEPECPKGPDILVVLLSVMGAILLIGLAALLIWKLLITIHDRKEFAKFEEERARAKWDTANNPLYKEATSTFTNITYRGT

SMILES: N=C(N)NCCC[C@@H]1NC(=O)[C@@H](Cc2ccc(O)cc2)NC(=O)CSC[C@@H](C(=O)NCCN)NC(=O)[C@H](CC(=O)O)NC(=O)CNC1=O [8/23, cyclo-S-acetyl-dTyr--Arg--Gly--Asp--Cys--NH--X (X = ethyl amine)] ({CH2CO}-[dY]RGDC-Ethylenediamine; thioether N-5)
- IC50 (GP IIb IIIa [1]): 14 nM
- IC50 (GP IIb IIIa [2]): 4.67 nM

SMILES: N=C(N)NCCC[C@H](NC(=O)[C@@H]1CCCC(=O)N[C@H](Cc2ccc(O)cc2)C(=O)N[C@@H](CCCNC(=N)N)C(=O)NCC(=O)N[C@@H](CC(=O)O)C(=O)N1)C(N)=O [10/19, cyclo(1-5)dTyr--Arg--Gly--Asp--L-α-aminoadipic acid-Arg--NH2] ([dY]RGD[Aad]R-NH2; lactam N-5)
- IC50 (GP IIb IIIa [1]): 8.9 nM
- IC50 (GP IIb IIIa [2]): 2.9 nM

SMILES: N=C(N)NCCC[C@@H]1NC(=O)[C@@H](Cc2ccc(O)cc2)NC(=O)C(CCCCN)SC[C@@H](C(=O)O)NC(=O)[C@H](CC(=O)O)NC(=O)CNC1=O (single isomer, unassigned) [9/11, cyclo-S-2-L-(6-aminocaproyl)-Lys--dTyr--Arg--Gly--Asp--Cys--OH]
- IC50 (GP IIb IIIa [1]): 14.3 nM
- IC50 (GP IIb IIIa [2]): 6.95 nM

SMILES: CC1(C)SCC(=O)N[C@H](Cc2ccc(O)cc2)C(=O)N[C@@H](CCCCN)C(=O)NCC(=O)N[C@@H](CC(=O)O)C(=O)N[C@@H]1C(=O)N[C@@H](CCCCN)C(N)=O [7/17, cyclo-S-acetyl-dTyr--Lys--Gly--Asp--Pen--Lys--NH2] ({CH2CO}-[dY]KGD[Pen]K-NH2; thioether N-5)
- IC50 (GP IIb IIIa [1]): 238 nM
- IC50 (GP IIb IIIa [2]): 73.1 nM

SMILES: N=C(N)NCCC[C@@H]1NC(=O)[C@@H](Cc2ccc(O)cc2)NC(=O)CSC[C@@H](C(=O)NCCCCN)NC(=O)[C@H](CC(=O)O)NC(=O)CNC1=O [8/12, cyclo-S-acetyl-dTyr--Arg--Gly--Asp--Cys--NH--X (X = butylamine)] ({CH2CO}-[dY]RGDC-{NH(CH2)4NH2}; thioether N-5)
- IC50 (GP IIb IIIa [1]): 10 nM
- IC50 (GP IIb IIIa [2]): 5.4 nM
